Test results reported in PubChem BioAssay AID330 (DTP/NCI, 2004).
“And” between values parts separate entries of the source, which are not always exact repeats. Equal entries are not always repeated. Inconclusive results and toxic doses are left out. The calls were made as follows: active = survival T/C of 150% or more; inactive = T/C below 125% in these data.

System: P388 leukemia ip, CD2F1 mice, survival T/C
Assay: NCI In Vivo Anticancer Drug Screen. Data for tumor model P388 Leukemia (intraperitoneal) in CD2F1 (CDF1) mice
Details: endpoint: median survival time, higher = longer survival
Summary of the method: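 Mice carrying the transplanted tumor received test compound or vehicle. Survival was recorded in each group, and the value is the treated-group measurement divided by that of the vehicle-treated control group.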

[1] = dose: 25.0 mg/kg/injection, schedule: Q01DX009 (ip), vehicle: saline with Tween-80
[2] = dose: 50.0 mg/kg/injection, schedule: Q01DX005 (ip), vehicle: saline with Tween-80
[3] = dose: 100.0 mg/kg/injection, schedule: Q01DX005 (ip), vehicle: saline with Tween-80
[4] = dose: 200.0 mg/kg/injection, schedule: Q01DX005 (ip), vehicle: saline with Tween-80
[5] = dose: 50.0 mg/kg/injection, schedule: Q01DX005 (ip), vehicle: Klucel (hydroxypropylcellulose) (HPC)
[6] = dose: 100.0 mg/kg/injection, schedule: Q01DX005 (ip), vehicle: Klucel (hydroxypropylcellulose) (HPC)
[7] = dose: 200.0 mg/kg/injection, schedule: Q01DX005 (ip), vehicle: Klucel (hydroxypropylcellulose) (HPC)

Measured: T/C

O=[N+]([O-])c1ccc(/C=C/Br)o1
inactive: dose: 50.0 mg/kg/injection, schedule: Q01DX009 (ip), vehicle: suspension in saline 88 % of control | dose: 100.0 mg/kg/injection, schedule: Q01DX009 (ip), vehicle: suspension in saline 95 % of control | dose: 200.0 mg/kg/injection, schedule: Q01DX009 (ip), vehicle: suspension in saline 103 % of control

Cc1cccc2c(-c3ccccc3)c3cccc[n+]3cc12
inactive: dose: 0.78 mg/kg/injection, schedule: Q01DX005 (ip), vehicle: Klucel (hydroxypropylcellulose) (HPC) 100 % of control and 103 % of control | dose: 1.56 mg/kg/injection, schedule: Q01DX005 (ip), vehicle: Klucel (hydroxypropylcellulose) (HPC) 108 % of control and 89 % of control | dose: 3.12 mg/kg/injection, schedule: Q01DX005 (ip), vehicle: Klucel (hydroxypropylcellulose) (HPC) 103 % of control and 97 % of control | dose: 6.25 mg/kg/injection, schedule: Q01DX005 (ip), vehicle: Klucel (hydroxypropylcellulose) (HPC) 94 % of control

Cc1cccc(C)c1N=CNc1c(C)cccc1C.[Cu+2]
inactive: [1] 101 % of control and 103 % of control and 118 % of control

Cc1cc(N=Nc2ccccc2)cc(C)c1N
inactive: dose: 100.0 mg/kg/injection, schedule: Q01DX009 (ip), vehicle: saline with Tween-80 90 % of control | dose: 200.0 mg/kg/injection, schedule: Q01DX009 (ip), vehicle: saline with Tween-80 90 % of control | dose: 400.0 mg/kg/injection, schedule: Q01DX009 (ip), vehicle: saline with Tween-80 100 % of control

OC1Cc2ccccc2CC1NC1CCCCC1 (stereo unspecified)
inactive: dose: 50.0 mg/kg/injection, schedule: Q01DX005 (ip), vehicle: saline 108 % of control | dose: 100.0 mg/kg/injection, schedule: Q01DX005 (ip), vehicle: saline 98 % of control

O=C1CN(CCCN2c3ccccc3Sc3ccc(C(F)(F)F)cc32)CC(=O)N1
inactive: [2] 103 % of control | [3] 100 % of control | [4] 104 % of control

CCOC(=O)C(C)(C)c1nc[nH]c1[N+](=O)[O-]
inactive: dose: 12.5 mg/kg/injection, schedule: Q04DX003 (ip), vehicle: saline with Tween-80 100 % of control | dose: 25.0 mg/kg/injection, schedule: Q04DX003 (ip), vehicle: saline with Tween-80 104 % of control | dose: 50.0 mg/kg/injection, schedule: Q04DX003 (ip), vehicle: saline with Tween-80 100 % of control | dose: 200.0 mg/kg/injection, schedule: Q04DX003 (ip), vehicle: saline with Tween-80 98 % of control | dose: 400.0 mg/kg/injection, schedule: Q04DX003 (ip), vehicle: saline with Tween-80 101 % of control

CCOC(=O)NC(=Cc1ccccn1)c1ccc(Cl)cc1 (mixture of isomers)
inactive: dose: 60.0 mg/kg/injection, schedule: Q01DX005 (ip), vehicle: saline with Tween-80 103 % of control | dose: 120.0 mg/kg/injection, schedule: Q01DX005 (ip), vehicle: saline with Tween-80 97 % of control | dose: 240.0 mg/kg/injection, schedule: Q01DX005 (ip), vehicle: saline with Tween-80 93 % of control

CC(=O)Oc1ccc2c(c1)C(=O)c1nc(C)c(C)nc1C2=O
inactive: [5] 102 % of control | [6] 102 % of control | [7] 109 % of control

Nc1ccc(Cl)cc1C(=O)N1CCN(c2ccc([N+](=O)[O-])cn2)CC1
inactive: dose: 7.5 mg/kg/injection, schedule: Q01DX005 (ip), vehicle: Klucel (hydroxypropylcellulose) (HPC) 99 % of control | dose: 15.0 mg/kg/injection, schedule: Q01DX005 (ip), vehicle: Klucel (hydroxypropylcellulose) (HPC) 92 % of control | dose: 30.0 mg/kg/injection, schedule: Q01DX005 (ip), vehicle: Klucel (hydroxypropylcellulose) (HPC) 93 % of control

CC(C)CN=C(N)Nc1cccc(NC(=O)Nc2ccc(Cl)cc2)c1
inactive: dose: 12.5 mg/kg/injection, schedule: Q01DX009 (ip), vehicle: saline with Tween-80 92 % of control | [1] 86 % of control | dose: 50.0 mg/kg/injection, schedule: Q01DX009 (ip), vehicle: saline with Tween-80 109 % of control and 91 % of control

Cn1c(C=O)cc2c(Cl)nccc21
inactive: [5] 103 % of control | [6] 103 % of control | [7] 101 % of control

CSc1nc2ccc(NC(C)=O)cc2s1
inactive: dose: 12.5 mg/kg/injection, schedule: Q01DX009 (ip), vehicle: Klucel (hydroxypropylcellulose) (HPC) 111 % of control | dose: 25.0 mg/kg/injection, schedule: Q01DX009 (ip), vehicle: Klucel (hydroxypropylcellulose) (HPC) 107 % of control | dose: 50.0 mg/kg/injection, schedule: Q01DX009 (ip), vehicle: Klucel (hydroxypropylcellulose) (HPC) 102 % of control and 87 % of control | dose: 200.0 mg/kg/injection, schedule: Q01DX009 (ip), vehicle: Klucel (hydroxypropylcellulose) (HPC) 90 % of control

CCC(C)n1c(=O)cc(C)[nH]c1=O (stereo unspecified)
inactive: dose: 50.0 mg/kg/injection, schedule: Q01DX009 (ip), vehicle: saline 101 % of control | dose: 100.0 mg/kg/injection, schedule: Q01DX009 (ip), vehicle: saline 98 % of control | dose: 200.0 mg/kg/injection, schedule: Q01DX009 (ip), vehicle: saline 104 % of control

O=C1OC[C@H]2[C@H](c3ccc(O)c(O)c3)c3cc(O)c(O)cc3C[C@H]12
inactive: [2] 95 % of control | [3] 95 % of control | [4] 92 % of control
